Laboratory results taken from patent US20210038732A1, “ANTICANCER MICRORNA AND LIPID FORMULATIONS THEREOF” (INTERNA TECHNOLOGIES B.V., priority 2018, published 2021).

How the values were obtained:
4T1 = test: Caspase 3/7 apoptosis assay; format: cell-based, mouse; conditions: 10 nM, normalized to mock
Method: Depending on cancer cell type 3000-6000 cells were seeded in a 96 well plate. After cells attached, they were transfected with different concentrations of miRNA-193a and apoptosis induction was measured at different time points. This assay was performed using Promega kit. 100 uL of caspase reagent was added to 100 uL of media in each well in 96-well plate and incubated for 2 hours in the dark at room temperature. The luminescent signal was read on a luminescent plate reader.
Different biological effects of miRNA-193a-3p have been tested in various cancer cell lines (see Table 13). For this, various cells were treated with miRNA-193a at different concentrations (1, 3, 10 nM). For all experiments controls (untreated, mock and scrambled) were measured. All assays were performed at 24h, 48h and 72h time points. Data shown in Table 13 are the results for miRNA-193a at 10 nM concentration at indicated time points. All the results have been quantified and normalized to the mock control.
miRNA-193a treatment in various cancer cell lines decreased cell viability over time as measured by either an MTS assay or by cell count. It enhanced apoptosis induction over time as measured by a caspase 3/7 apoptosis assay. […] It is of note that due to intrinsic characteristics and gene mutation status of each cell line, performing one method to detect apoptosis is not always ideal for all cell lines.

[1] = tested on: genes downregulated in at least three cell lines; test: Annotation clustering of downregulated genes with DAVID software; set-up: species or system human
Source text: For clustering and pathway analysis, a bigger gene set was required. […] Other clusters contained genes with roles in angiogenesis, unfolded protein response, chemotaxis, protein transport, nucleoside metabolism, glycosylation, oncogenesis, wound healing. […] These 161 genes are ERMP1, MCL1, ZDHHC18, KIAA1147, IDS, EIF4B, ETS1, TXLNA, NT5E, WSB2, PLAUR, LRRC40, PTPLB, SLC15A1, NCEH1, IL17RD, STMN1, AIMP2, PHACTR2, GALNT1, LAMC2, SCP2, SLC26A2, LUZP1, SHMT2, UBP1, PHLDA2, ST5, ENDOD1, CGNL1, MARCKSL1, RAB11FIP5, CCND1, RUSC1, FAM168B, ZC3H7B, PPTC7, SLC39A5, ACSS2, TPP1, HYOU1, DCTN5, CRKL, WDFY2, WDR82, SLC6A12, CDK6, SULF2, TWISTNB, ATP5F1, ALDH9A1, TOR4A, NET1, RSF1, NUP50, ZMAT3, AP2M1, MPP2, ITGB3, GALNT14, SLC35D1, PPARGC1A, TBL1XR1, MSANTD3, CLSTN1, PITPNB, CECR2, KIAA1644, ARHGAP29, KIAA1191, GREB1, PIK3R1, TNFRSF21, SEPN1, SYNRG, LRP4, ZNF365, CRYAA, MED21, GNAI3, ATP5SL, UBE2L6, ANKRD13A, GCH1, NIPA1, TRIM62, USP39, HEG1, DCAF7, LRRC8A, SOX5, IRF1, MORC4, UNC119B, FAF2, SLC30A1, C1QBP, ST3GAL4, TRIB2, TBC1D5, TMPPE, MAPK8, CBX1, CADM1, CCDC28A, YWHAZ, ERAP2, STON2, AP5M1, TGFB2, CYTH1, FAM20B, DPY19L1, ARHGAP19, LPAR3, LMLN, NUDT15, PLAU, VAMP8, HHAT, AGPAT1, ATP8B2, ACPL2, SCAMP4, LAT2, OSMR, NUDT21, HPRT1, STARD7, GABPA, CDC42EP2, THBS4, ATP6V1B2, PRNP, GFPT1, MAX, KRAS, CNOT6, NUDT3, RFWD3, APPL1, SLC23A2, BOD1, PDE3A, SLC30A7, CEP41, NOTCH2, RGS2, CDC42EP4, TP53INP1, SQSTM1, DDAH1, SLC35D2, FOCAD, GPATCH11, CBL, TMEM30B, HFE, PLEKHB2, ARPC5, and ABI2. Among these genes, NT5E, TNFRSF21, YWHAZ, MAPK8, PLAU, PLAUR, NOTCH2, ETS1, IL17RD, CDK6, EIF4B, and MCL1 are particularly interesting for their crucial involvement in the cell cycle pathway, in immune activation, as well as in cell movement. […] ETS1, YWHAZ, MPP2, PLAU, CDK4, CDK6, EIF4B, RAD51, CCNA2, STMN1, and DCAF7 are of particular interest for their crucial involvement in regulation of the cell cycle.

A549, H460 = test: Cell cycle arrest profile (nuclei imaging or flow cytometry); format: cell-based, human; conditions: 10 nM
Method: Depending on cancer cell type 3000-6000 cells were seeded in a 96 well plate. After cells attached, they were transfected with different concentrations of miRNA-193a and cell cycle profile was measured at different time points. At selected time points media was aspirated from wells and DNA staining solution (Hoescht 33342/Saponin/PFA) was added to each well and incubated for 2 hours at 37° C. Then, cell images were taken using Thermo Celllnsite in which nuclei were specified and nuclei intensity were measured. Nuclei intensity was analyzed using program R to determine the different phases of the cell cycle (G0/G1, S, G2/M) based on the DNA content.
To specifically detect the cells that are undergoing apoptosis, FITC Annexin V apoptosis detection kit (BD pharmingen) was used. […] After cells attached, they were transfected with different concentrations of miRNA-193a and apoptosis assay was measured at different time points following the manufacturer's protocol. With this assay we have detected the percentage of apoptotic cells indicating the SubG1 phase of the cell cycle.
Different biological effects of miRNA-193a-3p have been tested in various cancer cell lines (see Table 13). […] For all experiments controls (untreated, mock and scrambled) were measured. […] All the results have been quantified and normalized to the mock control. […]

miRNA-193a: duplex of the miRNA-193a-3p of SEQ ID NO: 218 (mimic, sense) with antisense strand SEQ ID NO: 219; naked in vitro, formulated in vivo (sense UGGGACUUUGUAGGCCAGUUTT; antisense AACUGGCCUACAAAGUCCCAGU; chemistry not given here; listed as Homo sapiens)
Apoptosis (48/72 h) (4T1): ↑ (Induction < 2x) | Enrichment score (ES) ([1]; Gene cluster Angiogenesis): 2.17 | Enrichment score (ES) ([1]; Gene cluster Apoptosis): 2.55 | Enrichment score (ES) ([1]; Gene cluster Chemotaxis): 1.66 | Enrichment score (ES) ([1]; Gene cluster Glycosylation): 1.47 | Enrichment score (ES) ([1]; Gene cluster Immune activation): 1.16 | Enrichment score (ES) ([1]; Gene cluster Nucleoside metabolism): 1.49 | Enrichment score (ES) ([1]; Gene cluster Oncogenesis): 1.37 | Enrichment score (ES) ([1]; Gene cluster Protein transport): 1.51 | Enrichment score (ES) ([1]; Gene cluster Unfolded protein response): 1.84 | Enrichment score (ES) ([1]; Gene cluster Wound healing): 1.18 | Cell cycle arrest (72 h) (A549, H460): SubG1
